Data published in patent US8263596B2, “Kinase inhibitors and method of treating cancer” (University Health Network, priority 2010, dated 2012).
Counter-ions that a name gives are not always drawn.

Key:
Aurora A = molecular target: T1, Aurora A (Homo sapiens, UniProt O14965); experiment: Aurora A inhibition assay (Z-Lyte); type: biochemical
T1 sequence (O14965 1-403): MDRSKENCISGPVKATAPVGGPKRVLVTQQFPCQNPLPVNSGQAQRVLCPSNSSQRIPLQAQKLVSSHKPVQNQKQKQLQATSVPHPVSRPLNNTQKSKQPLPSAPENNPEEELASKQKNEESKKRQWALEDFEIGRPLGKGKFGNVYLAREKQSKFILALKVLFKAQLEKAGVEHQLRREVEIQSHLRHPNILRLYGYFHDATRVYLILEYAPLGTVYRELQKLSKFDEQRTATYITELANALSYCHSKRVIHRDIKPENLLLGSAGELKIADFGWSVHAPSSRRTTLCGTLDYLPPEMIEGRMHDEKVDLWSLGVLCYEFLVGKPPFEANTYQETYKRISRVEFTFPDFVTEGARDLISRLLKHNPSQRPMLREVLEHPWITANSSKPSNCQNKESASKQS

SW620 colon cancer cells = type: cell-based; details: Homo sapiens, SW-620, 120 h, read-out: Cell Line GI50 Range SW-620
A549 lung cancer cells = type: cell-based; details: Homo sapiens, A549, 120 h, read-out: Cell Line GI50 Range A-549
Aurora B = Aurora B (Homo sapiens, UniProt Q96GD4); experiment: Aurora B inhibition assay (Z-Lyte); type: biochemical; details: read-out: IC50 Ranges Aurora B
human PLK4 = molecular target: T2, human PLK4 (Homo sapiens, UniProt O00444); experiment: PLK4 inhibition assay (indirect ELISA); type: biochemical; details: read-out: IC50 Ranges PLK4
T2 construct: amino terminal GST fusion of residues 1-391 of human PLK4; made in house; host or cells: E. coli
T2 sequence (O00444 1-391): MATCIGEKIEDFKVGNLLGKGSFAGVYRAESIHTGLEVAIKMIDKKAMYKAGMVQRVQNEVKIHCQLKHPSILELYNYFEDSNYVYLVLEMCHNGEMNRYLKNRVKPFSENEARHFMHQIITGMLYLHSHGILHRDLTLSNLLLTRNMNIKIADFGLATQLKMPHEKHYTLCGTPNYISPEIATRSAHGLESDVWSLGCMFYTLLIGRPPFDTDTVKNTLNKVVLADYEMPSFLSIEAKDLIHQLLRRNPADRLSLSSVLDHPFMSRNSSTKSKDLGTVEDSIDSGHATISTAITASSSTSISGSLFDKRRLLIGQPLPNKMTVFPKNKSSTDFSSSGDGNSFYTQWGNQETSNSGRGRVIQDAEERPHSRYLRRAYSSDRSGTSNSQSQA

Aurora B, sequence (Q96GD4 whole entry): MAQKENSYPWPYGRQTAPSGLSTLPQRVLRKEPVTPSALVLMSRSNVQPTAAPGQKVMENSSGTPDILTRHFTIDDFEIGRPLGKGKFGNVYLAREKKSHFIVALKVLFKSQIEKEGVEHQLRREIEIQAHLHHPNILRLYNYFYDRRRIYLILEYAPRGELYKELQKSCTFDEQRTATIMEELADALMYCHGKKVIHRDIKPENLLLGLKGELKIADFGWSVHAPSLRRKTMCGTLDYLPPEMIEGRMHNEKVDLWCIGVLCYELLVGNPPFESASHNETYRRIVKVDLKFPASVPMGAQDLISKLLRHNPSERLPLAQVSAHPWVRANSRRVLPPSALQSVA

| IC50 (Aurora A) | Compound | GI50 (SW620 colon cancer cells) | GI50 (A549 lung cancer cells) | IC50 (Aurora B) | IC50 (human PLK4) |
| --- | --- | --- | --- | --- | --- |
| 100 to 1000 nM | COc1ccc2c(c1)[C@]1(C[C@H]1c1ccc3c(/C=C/c4cccc(CN5CCOCC5)c4)n[nH]c3c1)C(=O)N2 [Example A132, (1R,2S)-5′-methoxy-2-(3-(3-(morpholinomethyl)styryl)-1H-indazol-6-yl)spiro[cyclopropane-1,3′-indolin]-2′-one 2,2,2-trifluoroacetate] | – | – | – | – |
| – | CN1C(=O)[C@@]2(C[C@H]2c2ccc3c(/C=C/c4ccc(N5CCNCC5)cc4)n[nH]c3c2)c2ccccc21 [Example A90, (1R,2S)-(E)-1′-methyl-2-(3-(4-(piperazin-1-yl)styryl)-1H-indazol-6-yl)spiro[cyclopropane-1,3′-indolin]-2′-one hydrochloride] | < 100 nM | < 100 nM | – | – |
| – | COc1ccc2c(c1)[C@]1(C[C@H]1c1ccc3c(-c4ccc(N5CCN(C)CC5)cc4)n[nH]c3c1)C(=O)N2 (relative stereo) [Example A38, (1R*,2S*)-5′-Methoxy-2-(3-(4-(4-methylpiperazin-1-yl)phenyl)-1H-indazol-6-yl)spiro[cyclopropane-1,3′-indolin]-2′-one] | 100 to 1000 nM | – | < 100 nM | – |
| – | COc1ccc2c(c1)[C@]1(CC1c1ccc3c(-c4ccc(N5CCN(C)CC5)nc4)n[nH]c3c1)C(=O)N2 (mixture of isomers) [Example A14, (1R*,2S*)-5′-Methoxy-2-(3-(6-(4-methylpiperazin-1-yl)pyridin-3-yl)-1H-indazol-6-yl)spiro[cyclopropane-1,3′-indolin]-2′-one dihydrochloride] | < 100 nM | < 100 nM | – | – |
| < 100 nM | COCCN1C(=O)[C@@]2(C[C@H]2c2ccc3c(/C=C/c4ccc(CN(C)C)cc4)n[nH]c3c2)c2ccccc21 (relative stereo) [Example A180, (1R*,2S*)-(E)-2-(3-(4-((dimethylamino)methyl)styryl)-1H-indazol-6-yl)-1′-(2-methoxyethyl)spiro[cyclopropane-1,3′-indolin]-2′-one 2,2,2-trifluoroacetate] | – | – | – | – |
| – | O=C1Nc2ccccc2[C@]12CC2c1ccc2cn[nH]c2c1 (mixture of isomers) [Example A2, (1R*,2S*)-2-(1H-indazol-6-yl)spiro[cyclopropane-1,3′-indolin]-2′-one] | > 10000 nM | > 10000 nM | – | – |
| – | COc1ccc2c(c1)[C@]1(C[C@H]1c1ccc3c(-c4ccc(C(=O)N5CCN(C)CC5)cc4)n[nH]c3c1)C(=O)N2 (relative stereo) [Example A148, (1R*,2S*)-5′-methoxy-2-(3-(4-(4-methylpiperazine-1-carbonyl)phenyl)-1H-indazol-6-yl)spiro[cyclopropane-1,3′-indolin]-2′-one 2,2,2-trifluoroacetate] | 1000 to 10000 nM | 100 to 1000 nM | 100 to 1000 nM | < 100 nM |
| 100 to 1000 nM | COc1ccc2c(c1)[C@]1(C[C@H]1c1ccc3c(/C=C/c4cccc(CN(C)C)c4)n[nH]c3c1)C(=O)N2 [Example A134, (1R,2S)-2-(3-(3-((dimethylamino)methyl)styryl)-1H-indazol-6-yl)-5′-methoxyspiro[cyclopropane-1,3′-indolin]-2′-one 2,2,2-trifluoroacetate] | – | – | – | – |
| – | COc1ccc2c(c1)[C@]1(C[C@H]1c1ccc3c(/C=C/c4ccc(CN5CCOCC5)s4)n[nH]c3c1)C(=O)N2 [Example A105, (1R,2S)-5′-methoxy-2-(3-((E)-2-(5-(morpholinomethyl)thiophen-2-yl)vinyl)-1H-indazol-6-yl)spiro[cyclopropane-1,3′-indolin]-2′-one hydrochloride] | < 100 nM | < 100 nM | – | – |
| – | COc1ccc2c(c1)[C@]1(C[C@H]1c1ccc3c(-c4ccc(C5CCNCC5)cc4)n[nH]c3c1)C(=O)N2 (relative stereo) [Example A122, (1R*,2S*)-5′-methoxy-2-(3-(4-(piperidin-4-yl)phenyl)-1H-indazol-6-yl)spiro[cyclopropane-1,3′-indolin]-2′-one 2,2,2-trifluoroacetate] | < 100 nM | < 100 nM | – | – |
| – | Cc1ccc2c(c1)[C@]1(C[C@H]1c1ccc3c(/C=C/c4ccc(CN(C)C)cc4)n[nH]c3c1)C(=O)N2 (relative stereo) [Example A169, (1R*,2S*)-(E)-2-(3-(4-((dimethylamino)methyl)styryl)-1H-indazol-6-yl)-5′-methylspiro[cyclopropane-1,3′-indolin]-2′-one 2,2,2-trifluoroacetate] | – | < 100 nM | – | – |
| – | COc1ccc2c(c1)[C@]1(C[C@H]1c1ccc3c(-c4ccc(CN5CCOCC5)cc4)n[nH]c3c1)C(=O)N2 (relative stereo) [Example A139, (1R*,2S*)-5′-methoxy-2-(3-(4-(morpholinomethyl)phenyl)-1H-indazol-6-yl)spiro[cyclopropane-1,3′-indolin]-2′-one 2,2,2-trifluoroacetate] | – | – | < 100 nM | < 100 nM |
| – | COc1ccc2c(c1)C1(CC1c1ccc3c(I)n[nH]c3c1)C(=O)N2 (stereo not drawn) [Example A6, (1R*,2S*)- and (1R*,2R*)-2-(3-iodo-1H-indazol-6-yl)-5-methoxyspiro-[cyclopropane-1,3′-indolin]-2′-one] | – | – | 100 to 1000 nM | < 100 nM |
| – | O=C1Nc2ccc(F)cc2[C@]12C[C@H]2c1ccc2c(/C=C/c3ccc(N4CCOCC4)nc3)n[nH]c2c1 (relative stereo) [Example A207, (1R*,2S*)-5′-fluoro-2-(3-((E)-2-(6-morpholinopyridin-3-yl)vinyl)-1H-indazol-6-yl)spiro[cyclopropane-1,3′-indolin]-2′-one 2,2,2-trifluoroacetate] | – | – | < 100 nM | < 100 nM |
| – | COc1ccc2c(c1)[C@]1(C[C@H]1c1ccc3c(-c4ccc(N5CCC(O)CC5)nc4)n[nH]c3c1)C(=O)N2 (relative stereo) [Example A117, (1R*,2S*)-2-(3-(6-(4-hydroxypiperidin-1-yl)pyridin-3-yl)-1H-indazol-6-yl)-5′-methoxyspiro[cyclopropane-1,3′-indolin]-2′-one 2,2,2-trifluoroacetate] | > 10000 nM | 1000 to 10000 nM | 100 to 1000 nM | – |
| – | CCN1Cc2ccc(/C=C/c3n[nH]c4cc([C@@H]5C[C@@]56C(=O)Nc5ccc(OC)cc56)ccc34)cc2C1 (relative stereo) [Example A190, (1R*,2S*)-2-(3-((E)-2-(2-ethylisoindolin-5-yl)vinyl)-1H-indazol-6-yl)-5′-methoxyspiro[cyclopropane-1,3′-indolin]-2′-one 2,2,2-trifluoroacetate] | – | – | < 100 nM | < 100 nM |
| – | COc1ccc2c(c1)[C@]1(C[C@H]1c1ccc3c(/C=C/c4ccc(N5CCNCC5)cc4)n[nH]c3c1)C(=O)N2 (relative stereo) [Example A182, (1R*,2S*)-5′-methoxy-2-(3-(4-(piperazin-1-yl)styryl)-1H-indazol-6-yl)spiro[cyclopropane-1,3′-indolin]-2′-one 2,2,2-trifluoroacetate] | – | – | < 100 nM | < 100 nM |
| – | COc1ccc2c(c1)[C@]1(C[C@H]1c1ccc3c(C#Cc4ccc(CN5CCN(C)CC5)cc4)n[nH]c3c1)C(=O)N2 (relative stereo) [Example A145, (1R*,2S*)-5′-methoxy-2-(3-((4-((4-methylpiperazin-1-yl)methyl)phenyl)ethynyl)-1H-indazol-6-yl)spiro[cyclopropane-1,3′-indolin]-2′-one bis(2,2,2-trifluoroacetate)] | – | – | 100 to 1000 nM | < 100 nM |
